Values joined by “and” are separate entries in the source; they are usually repeats but may differ in a detail not shown here. Equal values may be shown once. “Also recorded” adds a separate entry of the source. Read-outs that look alike come from different tables or passages of the source.
What was measured:
USP7-TRAF domain = biological target: T1, USP7-TRAF domain (Homo sapiens, UniProt Q93009); test: Surface plasmon resonance (SPR) analysis of peptide binding to USP7-TRAF
T1 construct: The TRAF domain of human and murine USP7 (1-208 aa) was subcloned into pGEX-6p-1; GST (N); made in house; host or cells: E. coli BL21 (DE3)
T1 sequence (Q93009 1-208): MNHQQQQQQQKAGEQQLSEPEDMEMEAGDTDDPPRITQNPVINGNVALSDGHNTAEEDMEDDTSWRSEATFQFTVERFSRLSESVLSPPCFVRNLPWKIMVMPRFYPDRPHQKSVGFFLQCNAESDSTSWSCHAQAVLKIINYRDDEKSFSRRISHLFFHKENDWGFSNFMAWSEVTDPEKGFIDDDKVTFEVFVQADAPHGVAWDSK

[1] = system: KSHV lytic reactivation in SLK.iBAC-GFP cells; format: cell-based
Protocol: (A) Graphical illustration showing the rationale underlying our peptide design. (B) Surface Plasmon Resonance (SPR) analysis assessing the interaction of the USP7-TRAF domain with the designed peptides p2 and p8. (C) SLK.iBAC-GFP cells were induced with doxycycline (Dox, 1 μg/mL) and sodium butyrate (0.5 mM) in the presence of the Tat fusion peptides (100 μM). All the peptides were fused to an N-terminal Tat47-57 peptide ([…]) via a flexible GG linker. The supernatants containing infectious virions were collected 48 h post-induction and used to infect HEK293T cells. KSHV infectious units were calculated based on the percentage of GFP-positive cells determined by flow cytometry. Data are mean ± s.d. of N = 3 independent biological replicates. (D) SLK.iBAC-GFP cells were induced with doxycycline (Dox, 1 μg/mL) and sodium butyrate (0.5 mM) in the presence of increasing amount of p8 (0, 10, 50, 100 μM). KSHV infectious units were determined 48 h post-induction. Data are mean ± s.d. of N = 3 independent biological replicates. […] Data are mean ± s.d. of N = 3 independent biological replicates. […] Cell viability was assessed by measuring ATP levels 48 h post-induction. Data are mean ± s.d. of N = 3 independent biological replicates.
Peptides p1 to p12 (S1A Fig) were synthesized by Sangon Biotech (Shanghai, China) with 95% purity. The Tat-fused peptides in Fig 1C consisted of the corresponding peptides conjugated to the Tat47-57 peptide ([…]) and two glycine linker residues (QYAOBIO, Suzhou, China). The peptides p8-DRI (nssqsasqnvpprrrqrrkkrGy) and p2-DRI (iesndedavepprrrqrrkkrGy) were synthesized using D-amino acids in a retro-reversed sequence with 95% purity (QYAOBIO, Suzhou, China). The peptide p8-m ([…]) was synthesized with 95% purity (QYAOBIO, Suzhou, China). All the peptides were acetylated at the N-terminus and amidated at the C-terminus to mimic the native peptide structure. The peptides were dissolved in PBS to prepare 1 mM stock solutions for in vitro experiments and 5 mg/ml stock solutions for in vivo experiments.
SLK.iBAC-GFP cells were treated with Dox (1 μg/ml) and sodium butyrate (0.5 mM) to induce lytic reactivation in the presence of indicated peptides (100 μM). The supernatants were collected at the specified time points and used to infect HEK293T cells at appropriate dilutions. The infected cells were collected, fixed, and analyzed by flow cytometry 24 h post-infection. FlowJo 10.0 software was used to analyze the data, and KSHV infectious units were quantified based on the percentage of GFP-positive cells.

SLK.iBAC-GFP cells = format: cell-based; conditions: Fig. 1F, 100 μM, 48 h
Protocol: SLK.iBAC-GFP cells were seeded in a 96-well plate at a density of 1 × 10^5 cells/well. The cells were then treated with doxycycline (Dox, 1 μg/ml) and sodium butyrate (0.5 mM) to induce lytic reactivation in the presence of the indicated peptides (100 μM) for 48 h. After treatment and a 30-min equilibration at room temperature, CellTiter-Glo Reagent (Promega, G7570) was added in equal volumes to culture medium. Plates underwent orbital shaking (2 min) for lysis, followed by a 10-min incubation for signal stabilization and luminescence recording (0.25-1 sec integration).

[2] = system: KSHV latent gene transcription in BCBL-1 cells; format: cell-based
[3] = system: KSHV genome replication in BCBL-1 cells; test: Relative viral genomic copy number (latency) by qPCR in BCBL-1 cells; format: cell-based; conditions: 100 μM, 48 h
[4] = system: interaction between OTUD4 and USP7-TRAF; test: GST pull-down competition assay, human USP7-TRAF and FLAG-OTUD4; format: binding; conditions: 100 μM, 4 h
[5] = system: interaction between murine USP7-TRAF and murine OTUD4; format: binding; conditions: GST pull-down
[6] = system: OTUD4-USP7 interaction in FLAG-OTUD4-expressing SLK.iBAC-GFP cells; format: cell-based
[7] = system: interaction between USP7 and MDM2; format: cell-based
[8] = system: interaction between USP7 and ICP0; format: cell-based
[9] = system: interaction between USP7 and p53; format: cell-based
[10] = system: KSHV lytic replication in BCBL-1-Tet-K-RTA cells; format: cell-based
[11] = system: KSHV lytic gene expression in BCBL-1-Tet-K-RTA cells; format: cell-based
[12] = system: KSHV lytic gene expression in SLK.iBAC-GFP cells; format: cell-based
[13] = system: KSHV viral proteins in BCBL-1-Tet-K-RTA cells; format: cell-based; conditions: 100 μM
RTA in iSLK cells = format: cell-based, KSHV
RTA in HEK293T cells = format: cell-based, KSHV
[14] = system: KSHV lytic reactivation in OTUD4- or USP7-knockdown SLK.iBAC-GFP cells; format: cell-based
[15] = system: KSHV lytic replication in SLK.iBAC-GFP cells transduced with vector control or OTUD4; format: cell-based; set-up: KSHV infectious units: unit not given here
[16] = system: KSHV-RTA-WT lytic reactivation; format: cell-based
MHV68 in MLF cells = format: cell-based
MHV68 in NIH3T3 cells = format: cell-based

Ac-YGRKKRRQRRRGGVNQSASQSSN-NH2 [p8]
Binding to the USP7-TRAF domain (in words) (USP7-TRAF domain): specifically bound to the USP7-TRAF domain
KSHV progeny virion production (in words) ([1]; S2E Fig, 100 μM): significantly reduced KSHV progeny virion production
Inhibition of KSHV lytic reactivation (in words) ([1]; Tat-fused peptides, 100 μM or dose series, 48 h post-induction): effectively inhibited KSHV lytic reactivation in a dose-dependent manner; also recorded: efficiently suppressed KSHV lytic reactivation
Cytotoxicity (in words) (SLK.iBAC-GFP cells): minimal cytotoxicity
Cell viability (ATP levels) (SLK.iBAC-GFP cells; replicate 1): 91.6982
Cell viability (ATP levels) (SLK.iBAC-GFP cells; replicate 2): 88.8817
Cell viability (ATP levels) (SLK.iBAC-GFP cells; replicate 3): 95.2836
ORF71 mRNA expression [2]: 1.01 and 1.03
ORF72 mRNA expression [2]: 1.27 and 1.18 and 1.09
ORF73 mRNA expression [2]: 0.87 and 0.86 and 0.96
KSHV latent gene transcription (in words) ([2]; 100 μM, 48 h): did not affect KSHV latent gene transcription
KSHV genome replication in latency (in words) [3]: did not affect KSHV latent gene transcription or genome replication
Disruption of OTUD4/USP7-TRAF interaction (in words) [4]: effectively blocked the interaction between OTUD4 and USP7-TRAF
Relative inhibitory activity on murine USP7-TRAF/murine OTUD4 interaction, p8 vs p8-m (in words) ([5]; 100 μM (S5E Fig)): slightly stronger inhibitory activity
Disruption of murine USP7-TRAF/murine OTUD4 interaction (in words) ([5]; 100 μM, 4 h (S5E Fig)): effectively disrupted the interaction
Co-localization of OTUD4 and USP7 (in words) [6]: disrupted the co-localization of OTUD4 and USP7
Effect on USP7-MDM2 interaction (in words) [7]: did not affect the interactions
Effect on USP7-ICP0 interaction (in words) [8]: did not affect the interactions
Effect on USP7-p53 interaction (in words) [9]: did not affect the interactions
KSHV genome copies in supernatants [10]: 1.3 and 1.45 and 1.47
Progeny viral genomic copy number (in words) ([10]; 100 μM, 48 h): reduced progeny viral genomic copy number
ORF25 gene expression [11]: 0.73 and 0.71
ORF26 gene expression [11]: 0.38 and 0.45 and 0.4
ORF50 gene expression [11]: 0.4 and 0.44 and 0.49
ORF56 gene expression [11]: 0.63 and 0.69 and 0.67
ORF57 gene expression [11]: 0.5 and 0.43 and 0.54
Transcription of KSHV lytic genes (in words) ([11]; 100 μM): decreased transcription of KSHV lytic genes
ORF25 gene expression [12]: 0.63 and 0.71 and 0.72
ORF26 gene expression [12]: 0.64 and 0.65 and 0.71
ORF50 gene expression [12]: 0.69 and 0.8
ORF56 gene expression [12]: 0.84 and 0.81 and 0.83
ORF57 gene expression [12]: 0.74 and 0.75
Transcription levels of ORF50, ORF56, ORF57, ORF25, ORF26 (in words) [12]: decreased the transcription levels of multiple viral genes
Viral protein levels (in words) [13]: lower levels of viral proteins
RTA protein level in iSLK cells (in words) (RTA in iSLK cells): reduced the protein level of RTA
Effect on OTUD4-enhanced RTA protein level (in words) (RTA in HEK293T cells): countered the promoting effect
Antiviral effect in OTUD4-deficient or USP7-deficient cells (in words) [14]: abolished
Effect on OTUD4-promoted KSHV lytic replication (in words) [15]: negated by p8
KSHV infectious units [15]: 6.7 and 4.8 and 4.4 and 5.5 and 6.5 and 6.3
KSHV infectious units [16]: 1.8648 and 1.9224 and 1.6488
Antiviral activity against MHV68 in MLF cells (in words) (MHV68 in MLF cells): potent antiviral activity against MHV68
ORF9 viral gene expression (MHV68 in MLF cells): 0.54 and 0.47 and 0.53
ORF25 viral gene expression (MHV68 in MLF cells): 0.37 and 0.47 and 0.44
ORF50 viral gene expression (MHV68 in MLF cells): 0.77 and 0.82 and 0.65
Antiviral activity against MHV68 in NIH3T3 cells (in words) (MHV68 in NIH3T3 cells): potent antiviral activity against MHV68
ORF9 viral gene expression (MHV68 in NIH3T3 cells): 0.25 and 0.26
ORF25 viral gene expression (MHV68 in NIH3T3 cells): 0.28 and 0.26
ORF50 viral gene expression (MHV68 in NIH3T3 cells): 0.24 and 0.22 and 0.27

— PMC12047801, “Disrupting the OTUD4-USP7 deubiquitinase complex to suppress herpesvirus replication: a novel antiviral strategy” (PLOS Pathogens, 2025)
